For one data set, the system named is mouse hepatocytes. Put plainly: Hepatocyte stability assay, mouse. The class given is in vitro ADME. To be noted: 10 μM compound. From the text: (§1) Defrosted cryo-preserved hepatocytes (viability >70%) were used to determine the metabolic stability of a compound via calculation of intrinsic clearance (Clint; a measure of the removal of a compound from the liver in the absence of blood flow and cell binding). Clearance data are particularly important for in vitro work as they can be used in combination with in vivo data to predict the half-life and oral bioavailability of a drug.
(§2) The metabolic stability in hepatocytes assay involves a time-dependent reaction using both positive and negative controls. The cells were pre-incubated at 37° C. and spiked with test compound (and positive control); samples were taken at pre-determined time intervals were analysed to monitor the change in concentration of the initial drug compound over 60 minutes. A buffer incubation reaction (with no hepatocytes present) acted as a negative control and two cocktail solutions, containing compounds with known high and low clearance values (verapamil/7-hydroxycoumarin and propranolol/diltiazem), acted as positive controls. • 1. The assay was run with a cell concentration of 0.5×10^6 cells/mL in Leibovitz buffer. • 2. All compounds and controls were run in duplicate. • 3. Compound concentration was 10 μM. • 4. All compounds and controls were incubated with both cells and buffer to show turnover was due to hepatic metabolism. • 5. All wells on the incubation plate had 326.7 μL of either cells or buffer added. • 6. Prior to assay, cell and buffer-only incubation plates were preincubated for 10 mins at 37° C. • 7. The assay was initiated by adding compounds, 3.3 μL of 1 mM in 10% DMSO-90% Buffer; final DMSO concentration was 0.1%. • 8. Samples were taken at regular timepoints (0, 5, 10, 20, 40, 60 min) until 60 mins. • 9. Sample volume was 40 μL and was added to 160 μL of crash solvent (acetonitrile with internal standard) and stored on ice. • 10. At the end of the assay, the crash plates were centrifuged at 3500 rpm for 20 mins at 4° C. • 11. 80 μL of clear supernatant was removed and mixed with 80 μL of deionised water before being analysed by LC-MS/MS.
(§3) Raw LC-MS/MS data was exported to, and analysed in, Microsoft Excel for determination of intrinsic clearance. The percentage remaining of a compound was monitored using the peak area of the initial concentration as 100%. Intrinsic clearance and half-life values were calculated using a graph of the natural log of percentage remaining versus the time of reaction in minutes. Half-life (min) and intrinsic clearance (Clint in μL min^−1 10^−6 cells) values were calculated using the gradient of the graph (the elimination rate constant, k) and Equations 1 and 2.

A short description of data set [1]: Hepatocyte stability assay, mouse. The class given is in vitro ADME. To be noted: mouse, cryopreserved hepatocytes, 10 μM compound, read-out: T½.
Text: as §1, §2, §3

Another data set relates to human hepatocytes. Nature of the data set: Hepatocyte stability assay, human. The class given is in vitro ADME. To be noted: 10 μM compound.
Text: as §1, §2, §3

The nature of data set [2]: Hepatocyte stability assay, human. The class given is in vitro ADME. To be noted: human, cryopreserved hepatocytes, 10 μM compound, read-out: T½.
Text: as §1, §2, §3

Data set [3] deals with IL-1β cytokine output from THP-1s. Nature of the data set: THP-1 AlphaLISA IL-1β cytokine assay. The data set is classed as cell-based. The note with it: Homo sapiens, LPS then nigericin, Table 1. The procedure:
(§4) The cytokine inhibition profiles of compounds of formula (I) were determined in a differentiated THP-1 cell assay. All assays were performed in RPMI-1640 growth medium (Gibco), supplemented with 10% fetal bovine serum (FBS; Gibco), 1% penicillin-streptomycin and 1% sodium pyruvate unless specified otherwise. The IL-1β and IL-6 cytokine inhibition assays were each run in a background of differentiated THP-1 cells as described below. All reagents described were from Sigma-Aldrich unless specified otherwise. Compounds were prepared as 10 mM DMSO stocks.
(§5) THP-1 cells were expanded as a suspension up to 80% confluence in appropriate growth medium. Cells were harvested, suspended, and treated with an appropriate concentration of phorbol 12-myristate 13-acetate (PMA) over a 72 hr period (37° C./5% CO2).
(§6) Following 72 hrs of THP-1 cell incubation, cellular medium was removed and replaced with fresh growth media containing 1% of FBS. Working concentrations of compounds were prepared separately in 10% FBS treated growth medium and pre-incubated with the cells for 30 minutes (37° C./5% CO2). Following the 30 minute compound pre-incubation, THP-1s were treated with an appropriate concentration of LPS and the THP-1s were subsequently incubated for a 24 hr period (37° C./5% CO2). An appropriate final concentration of Nigericin was then dispensed into the THP-1 plates and incubated for 1 hour (37° C./5% CO2) before THP-1 supernatants were harvested and collected in separate polypropylene 96-well holding plates.
(§7) Reagents from each of the IL-1β and IL-6 commercial kits (Perkin Elmer) were prepared and run according to the manufacturer's instructions. Subsequently, fluorescence signal detection in a microplate reader was measured (EnVision® Multilabel Reader, Perkin Elmer).
(§8) Percentage inhibition was calculated per cytokine by normalising the sample data to the high and low controls used within each plate (+/− LPS respectively). Percentage inhibition was then plotted against compound concentration and the 50% inhibitory concentration (IC50) was determined from the resultant concentration-response curve.
For orientation: Alpha assays give light when donor and acceptor beads are brought close together.

Data set [4] has as its system NRF2 (nuclear factor erythroid 2-related factor 2). Nature of the data set: NRF2 +/-GSH activation assay (DiscoverX PathHunter NRF2 translocation kit, U2OS cells). The note with it: for Emax (%) +GSH / Emax (%) −GSH: normalised to dimethyl fumarate high control. The data set is classed as cell-based.
The subject of data set [5] is IL-6 cytokine output from THP-1s. Nature of the data set: THP-1 AlphaLISA IL-6 cytokine assay. The data set is classed as cell-based. To be noted: Homo sapiens, LPS then nigericin, Table 1. The procedure: as §4, §5, §6, §7, §8
Where [6] appears, read: THP-1, differentiated THP-1 cells.

Regarding `C=C(CC(=O)OC1CCc2cc(Cl)cc(Cl)c2C1)C(=O)OCC(=O)O` (single isomer, unassigned; enantiomer 1) [Example 10, 2-((4-((6,8-dichloro-1,2,3,4-tetrahydronaphthalen-2-yl)oxy)-2-methylene-4-oxobutanoyl)oxy)acetic acid (Enantiomer 1)], the “Clint (μL min^−1 10^−6 cells)” value in the data set on mouse hepatocytes is recorded as 225 μL min^−1 10^−6 cells; with human hepatocytes it was 18 μL min^−1 10^−6 cells. The half-life at 10 μM in data set [1] was determined as 7 min; in data set [2] it was 81 min. The half-inhibitory concentration (IC50) (as a rule, the point on the concentration scale where inhibition reaches its midpoint) in data set [3] (setting [6]) came out at 6.6 µM.
As for `C=C(CC(=O)OC1CCCc2cc(C(F)(F)F)ccc21)C(=O)OCC(=O)O` (single isomer, unassigned; enantiomer 1) [Example 31, 2-((2-methylene-4-oxo-4-((6-(trifluoromethyl)-1,2,3,4-tetrahydronaphthalen-1-yl)oxy)butanoyl)oxy)acetic acid (Enantiomer 1)], the EC50 (commonly the concentration needed to bring the measured effect to its halfway point) in data set [4] (+GSH) is 22.9 µM; in data set [4] (−GSH), 11.3 µM. Moreover, the “Emax (%) +GSH” value in data set [4] (+GSH) is listed as 137%. Moreover, in data set [4] (−GSH), the “Emax (%) −GSH” value turned out to be 141%. Also, the IC50 in data set [5] (setting [6]) and in data set [3] (setting [6]) was 9.6 µM throughout. Further, the “Clint (μL min^−1 10^−6 cells)” value with mouse hepatocytes is 272 μL min^−1 10^−6 cells; with human hepatocytes, 29 μL min^−1 10^−6 cells. Moreover, the half-life at 10 μM in data set [1] stood at 6 min; in data set [2] it was 61 min.
In the case of `C=C(CC(=O)OC1(C)Cc2ccc(Cl)cc2C1)C(=O)OCC(=O)O` (stereo not shown) [Example 7, 2-((4-((5-chloro-2-methyl-2,3-dihydro-1H-inden-2-yl)oxy)-2-methylene-4-oxobutanoyl)oxy)acetic acid], the values for the EC50 in data set [4] (+GSH) and in data set [4] (−GSH) were 22.3 µM and 14.5 µM, respectively. Besides, the “Emax (%) +GSH” value in data set [4] (+GSH) is recorded as 135%. For the same compound, in data set [4] (−GSH), the “Emax (%) −GSH” value is recorded as 155%. Further, the IC50 in data set [5] (differentiated THP-1 cells) is 8.2 µM; in data set [3] (differentiated THP-1 cells) it was > 31.6 µM. The “Clint (μL min^−1 10^−6 cells)” value with mouse hepatocytes is listed as 142 μL min^−1 10^−6 cells; in the data set with human hepatocytes, 17 μL min^−1 10^−6 cells. Besides, the half-life at 10 μM in data set [1] came to 10 min; in data set [2], 86 min.
As for `C=C(CC(=O)OC1CCc2ccc(OC(F)(F)F)cc21)C(=O)OCC(=O)O` (stereo not shown) [Example 18, 2-((2-methylene-4-oxo-4-((6-(trifluoromethoxy)-2,3-dihydro-1H-inden-1-yl)oxy)butanoyl)oxy)acetic acid], in data set [4] (+GSH), the EC50 stood at 18.4 µM and the “Emax (%) +GSH” value is given as 105%. In addition, in data set [4] (−GSH), the EC50 turned out to be 8.7 µM and the “Emax (%) −GSH” value is on record as 121%. For the same compound, the “Clint (μL min^−1 10^−6 cells)” value in the data set on mouse hepatocytes is recorded as 146 μL min^−1 10^−6 cells. For the same compound, the half-life at 10 μM in data set [1] was 10 min. Also, it took 2.1 µM to reach half-maximal inhibition in data set [3] (setting [6]) (IC50).
As to `C=C(CC(=O)OC1CCc2c(Cl)cc(Cl)cc21)C(=O)OCCC(=O)O` (single isomer, unassigned; enantiomer 1) [Example 14, 3-((4-((4,6-dichloro-2,3-dihydro-1H-inden-1-yl)oxy)-2-methylene-4-oxobutanoyl)oxy)propanoic acid (Enantiomer 1)], the EC50 in data set [4] (+GSH) turned out to be 36.7 µM; in data set [4] (−GSH), 27.8 µM. Further, in data set [4] (+GSH), the “Emax (%) +GSH” value came out at 118%. Also, the “Emax (%) −GSH” value in data set [4] (−GSH) came out at 193%. For the same compound, the “Clint (μL min^−1 10^−6 cells)” value with mouse hepatocytes is on record as 224 μL min^−1 10^−6 cells; in the data set on human hepatocytes, 19 μL min^−1 10^−6 cells. Besides, the half-life at 10 μM in data set [1] was determined as 7 min; in data set [2], 75 min. Also, 2.8 µM corresponded to half-maximal inhibition in data set [3] (setting [6]) (IC50).
`C=C(CC(=O)OC1CCc2c(Cl)cc(Cl)cc21)C(=O)O[C@@H](CC(=O)O)C(F)(F)F` (single isomer, unassigned; diastereomer b) [Example 23]: the IC50 in data set [5] (setting [6]) and in data set [3] (setting [6]) was 1.2 µM each time. For the same compound, the “Clint (μL min^−1 10^−6 cells)” value with mouse hepatocytes is on record as >460 μL min^−1 10^−6 cells; in the data set with human hepatocytes, 190 μL min^−1 10^−6 cells. Further, the half-life at 10 μM in data set [1] was < 3 min; in data set [2] it was 9 min.
Take `C=C(CC(=O)OC1CCc2c(Cl)cc(Cl)cc21)C(=O)OCC(=O)O` (single isomer, unassigned; enantiomer 1) [Example 2, 2-((4-((4,6-dichloro-2,3-dihydro-1H-inden-1-yl)oxy)-2-methylene-4-oxobutanoyl)oxy)acetic acid (Enantiomer 1)]: the half-maximal effective concentration (EC50) in data set [4] (+GSH) amounted to 11.4 µM; in data set [4] (−GSH) it was 9 µM. For the same compound, the “Emax (%) +GSH” value in data set [4] (+GSH) turned out to be 166%. In data set [4] (−GSH), the “Emax (%) −GSH” value came out at 196%. The IC50 in data set [5] (setting [6]) is 4.3 µM; in data set [3] (setting [6]), 4 µM. For the same compound, the results for the “Clint (μL min^−1 10^−6 cells)” value in the data set on mouse hepatocytes and in the data set with human hepatocytes were 51 μL min^−1 10^−6 cells and 13 μL min^−1 10^−6 cells, respectively. Moreover, the “T½” value with mouse hepatocytes is on record as 37 min. Also, the half-life at 10 μM in data set [2] stood at 116 min.
Consider `C=C(CC(=O)OC1CCCc2c(Cl)cc(Cl)cc21)C(=O)OCC(=O)O` (single isomer, unassigned; enantiomer 1) [Example 24, 2-((4-((5,7-dichloro-1,2,3,4-tetrahydronaphthalen-1-yl)oxy)-2-methylene-4-oxobutanoyl)oxy)acetic acid (Enantiomer 1)], for which, in data set [4] (+GSH), the EC50 was found to be 5.7 µM and the “Emax (%) +GSH” value came out at 84%. In data set [4] (−GSH), the half-maximal effective concentration (EC50) came to 6 µM and the “Emax (%) −GSH” value turned out to be 148%. In data set [5] (setting [6]), this compound showed an IC50 of 4.1 µM. Besides, in the data set with mouse hepatocytes, the “Clint (μL min^−1 10^−6 cells)” value is on record as 56 μL min^−1 10^−6 cells and the “T½” value worked out at 34 min. In addition, in the data set on human hepatocytes, the “Clint (μL min^−1 10^−6 cells)” value came to 54 μL min^−1 10^−6 cells. Also, the half-life at 10 μM in data set [2] worked out at 32 min. Further, the IC50 in data set [3] (setting [6]) was 3.3 µM.
Take `C=C(CC(=O)OC1CCc2c(Cl)cc(Cl)cc21)C(=O)O[C@H](CC(=O)O)C(F)(F)F` (single isomer, unassigned; diastereomer a) [Example 22]: the IC50 in data set [5] (setting [6]) came out at 1.2 µM; in data set [3] (setting [6]), 1.7 µM. Also, the entries for the “Clint (μL min^−1 10^−6 cells)” value in the data set on mouse hepatocytes and with human hepatocytes were >460 μL min^−1 10^−6 cells and 252 μL min^−1 10^−6 cells, respectively. Further, the half-life at 10 μM was < 3 min in data set [1] and 7 min in data set [2].
`C=C(CC(=O)OC1CCc2cc(C(F)(F)F)ccc21)C(=O)OCC(=O)O` (stereo not shown) [Example 17, 2-((2-methylene-4-oxo-4-((5-(trifluoromethyl)-2,3-dihydro-1H-inden-1-yl)oxy)butanoyl)oxy)acetic acid]: the half-maximal effective concentration (EC50) is 35.4 µM in data set [4] (+GSH) and 29.2 µM in data set [4] (−GSH). In addition, in data set [4] (+GSH), the “Emax (%) +GSH” value is 184%. Further, the “Emax (%) −GSH” value in data set [4] (−GSH) is reported as 305%. In addition, the “Clint (μL min^−1 10^−6 cells)” value in the data set on mouse hepatocytes amounted to 72 μL min^−1 10^−6 cells; with human hepatocytes it was 6 μL min^−1 10^−6 cells. The half-life at 10 μM was 21 min in data set [1] and 227 min in data set [2]. The same compound displayed an IC50 in data set [3] (setting [6]) of 2.8 µM.
